Measurements: patent publication US10266497B2 (ABIDE THERAPEUTICS, INC., priority 2017, dated 2019)

Experiments:
MAGL [1] = molecular target: T1, MAGL (Homo sapiens, UniProt Q99685); experiment: In vitro competitive activity-based protein profiling, MAGL, human; details: for inhibition at 1 µM: read-out: MAGL % inh. 1 μM (human)
T1 sequence (Q99685 1-303): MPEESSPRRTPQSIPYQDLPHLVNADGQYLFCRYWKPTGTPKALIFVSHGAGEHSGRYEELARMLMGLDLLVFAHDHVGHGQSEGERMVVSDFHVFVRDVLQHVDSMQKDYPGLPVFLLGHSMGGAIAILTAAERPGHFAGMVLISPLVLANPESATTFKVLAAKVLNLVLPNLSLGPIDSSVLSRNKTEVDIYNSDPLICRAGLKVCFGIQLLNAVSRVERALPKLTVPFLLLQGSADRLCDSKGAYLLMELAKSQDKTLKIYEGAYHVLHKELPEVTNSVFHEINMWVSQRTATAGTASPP

MAGL [2] = molecular target: T2, MAGL (Mus musculus, UniProt O35678); experiment: Mouse brain proteomes from inhibitor treated mice (oral gavage, sacrificed 4 h after administration); format: in vivo; set-up: mouse brain membrane fraction for mouse assays; from tissue; host or cells: mouse brain (membrane fraction in vitro; brain proteomes of treated C57Bl/6J mice in vivo); details: 5 mg/kg oral gavage, brain proteome 4 h after administration, read-out: MAGL % inh. 5 mg/kg (mouse)
T2 sequence (O35678 1-303): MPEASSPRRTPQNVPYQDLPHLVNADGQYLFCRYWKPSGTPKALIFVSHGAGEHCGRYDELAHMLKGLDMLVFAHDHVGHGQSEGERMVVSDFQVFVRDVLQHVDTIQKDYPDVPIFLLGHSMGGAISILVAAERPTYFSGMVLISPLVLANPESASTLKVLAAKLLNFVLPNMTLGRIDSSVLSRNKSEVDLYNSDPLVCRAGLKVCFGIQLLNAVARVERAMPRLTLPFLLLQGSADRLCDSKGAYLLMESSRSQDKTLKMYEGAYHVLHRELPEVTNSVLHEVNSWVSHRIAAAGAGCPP

FAAH [3] = molecular target: T3, FAAH (Mus musculus, UniProt O08914); experiment: Mouse brain proteomes from inhibitor treated mice (oral gavage, sacrificed 4 h after administration), FAAH; format: in vivo; set-up: mouse brain membrane fraction for mouse assays; from tissue; host or cells: mouse brain (membrane fraction in vitro; brain proteomes of treated C57Bl/6J mice in vivo); details: 5 mg/kg oral gavage, brain proteome 4 h after administration, read-out: FAAH % inh. 5 mg/kg (mouse)
T3 sequence (O08914 1-579): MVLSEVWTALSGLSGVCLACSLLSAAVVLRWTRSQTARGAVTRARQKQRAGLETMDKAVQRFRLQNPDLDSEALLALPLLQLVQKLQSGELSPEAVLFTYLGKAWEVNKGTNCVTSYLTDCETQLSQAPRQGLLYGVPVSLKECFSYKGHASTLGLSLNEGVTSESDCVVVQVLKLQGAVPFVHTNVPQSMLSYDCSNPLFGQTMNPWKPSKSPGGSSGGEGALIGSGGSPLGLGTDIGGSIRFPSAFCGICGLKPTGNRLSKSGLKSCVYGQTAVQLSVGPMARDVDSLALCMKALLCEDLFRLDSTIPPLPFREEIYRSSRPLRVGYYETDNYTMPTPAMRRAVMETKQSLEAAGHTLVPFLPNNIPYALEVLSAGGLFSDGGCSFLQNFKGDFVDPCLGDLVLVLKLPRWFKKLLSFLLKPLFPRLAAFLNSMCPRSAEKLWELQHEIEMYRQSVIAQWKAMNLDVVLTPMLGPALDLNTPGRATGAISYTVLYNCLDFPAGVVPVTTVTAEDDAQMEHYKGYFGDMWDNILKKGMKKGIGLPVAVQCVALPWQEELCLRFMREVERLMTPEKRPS

FAAH [4] = molecular target: T4, FAAH (Homo sapiens, UniProt O00519); experiment: In vitro competitive activity-based protein profiling, FAAH, human; details: for inhibition at 1 µM: read-out: FAAH % inh. 1 μM (human)
T4 sequence (O00519 1-579): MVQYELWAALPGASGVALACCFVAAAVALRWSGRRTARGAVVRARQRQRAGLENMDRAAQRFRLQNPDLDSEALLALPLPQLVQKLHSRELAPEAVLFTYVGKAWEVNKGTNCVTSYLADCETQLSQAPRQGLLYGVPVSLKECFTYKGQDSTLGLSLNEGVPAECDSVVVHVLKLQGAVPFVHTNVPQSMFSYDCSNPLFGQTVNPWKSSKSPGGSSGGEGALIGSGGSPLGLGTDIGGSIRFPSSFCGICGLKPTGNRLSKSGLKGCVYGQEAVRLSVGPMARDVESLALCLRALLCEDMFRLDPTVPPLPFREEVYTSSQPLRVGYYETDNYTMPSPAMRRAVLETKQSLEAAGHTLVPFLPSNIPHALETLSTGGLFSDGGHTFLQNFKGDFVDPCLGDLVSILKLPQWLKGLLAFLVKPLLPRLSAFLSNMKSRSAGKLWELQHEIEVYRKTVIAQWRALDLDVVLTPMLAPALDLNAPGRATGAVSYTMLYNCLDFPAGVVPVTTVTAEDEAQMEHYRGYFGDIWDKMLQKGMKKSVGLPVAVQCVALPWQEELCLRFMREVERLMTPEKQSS

MAGL [5] = molecular target: T2, MAGL; experiment: In vitro competitive activity-based protein profiling, MAGL, mouse; details: read-out: MAGL % inh. 1 μM (mouse)
FAAH [6] = molecular target: T3, FAAH; experiment: In vitro competitive activity-based protein profiling, FAAH, mouse; details: read-out: FAAH % inh. 1 μM (mouse)

| inhibition at 1 µM (MAGL [1]) | inhibition at 5 mg/kg (MAGL [2]) | inhibition at 5 mg/kg (FAAH [3]) | IC50 (FAAH [4]) | inhibition at 1 µM (FAAH [4]) | inhibition at 1 µM (MAGL [5]) | inhibition at 1 µM (FAAH [6]) | IC50 (MAGL [1]) | Structure (SMILES) |
| --- | --- | --- | --- | --- | --- | --- | --- | --- |
| > 75% | 0 to 25% | 0 to 25% | 100 to 1000 nM | > 75% | > 75% | > 75% |  | O=C(O)c1ccn(C(=O)N2C[C@H]3C[C@H](OCc4cccc(C(F)(F)F)c4)C[C@H]3C2)n1 [Example 157, 1-(trans-5-((3-(trifluoromethyl)benzyl)oxy)octa-hydrocyclopenta[c]pyrrole-2-carbonyl)-1H-pyrazole-3-carboxylic acid] |
| > 75% | 0 to 25% | 0 to 25% | 1000 to 10000 nM | > 75% | > 75% | > 75% | 100 to 1000 nM | O=C(O)c1ccn(C(=O)N2CCC3(CCN(Cc4cccc(Oc5ccc(Cl)cc5)c4)C3)CC2)n1 [Example 210, 1-(2-(3-(4-chlorophenoxy)benzyl)-2,8-diazaspiro[4.5]decane-8-carbonyl)-1H-pyrazole-3-carboxylic acid] |
| > 75% | 0 to 25% | 0 to 25% |  | > 75% | > 75% | > 75% |  | O=C(O)c1ccn(C(=O)N2C[C@H]3C[C@H](OCc4cccc(Oc5ccc(Cl)cc5)c4)C[C@H]3C2)n1 [Example 158, 1-(trans-5-((3-(4-chlorophenoxy)benzyl)oxy)octa-hydrocyclopenta[c]pyrrole-2-carbonyl)-1H-pyrazole-3-carboxylic acid] |
| > 75% | 0 to 25% | 0 to 25% | 100 to 1000 nM | > 75% | > 75% | 0 to 25% | 100 to 1000 nM | O=C(O)c1ccn(C(=O)N2CC3CN(Cc4cccc(Oc5ccc(Cl)cc5)c4)CC3C2)n1 (stereo not drawn) [Example 116, 1-(5-(3-(4-chlorophenoxy)benzyl)octahydro-pyrrolo[3,4-c]pyrrole-2-carbonyl)-1H-pyrazole-3-carboxylic acid] |
| > 75% | 0 to 25% | 0 to 25% |  | 0 to 25% | > 75% | 0 to 25% |  | O=C(O)c1ccn(C(=O)N2CCN(Cc3cccc(Cl)c3N3CC4COCC4C3)CC2)n1 (stereo not drawn) [Example 211, 1-(4-(3-chloro-2-(tetrahydro-1H-furo[3,4-c]pyrrol-5(3H)-yl)benzyl)piperazine-1-carbonyl)-1H-pyrazole-3-carboxylic acid] |
| > 75% | 0 to 25% | 0 to 25% |  | 0 to 25% | > 75% | 0 to 25% |  | O=C(O)c1ccn(C(=O)N2CCN(Cc3ccc(C(F)(F)F)cc3N3CCC(O)CC3)CC2)n1 [Example 120, 1-(4-(2-(4-hydroxypiperidin-1-yl)-4-(trifluoromethyl)benzyl)piperazine-1-carbonyl)-1H-pyrazole-3-carboxylic acid] |

Continued, compound first:

| Structure (SMILES) | inhibition at 1 µM (MAGL [1]) | inhibition at 5 mg/kg (MAGL [2]) | inhibition at 5 mg/kg (FAAH [3]) | IC50 (FAAH [4]) | inhibition at 1 µM (FAAH [4]) | inhibition at 1 µM (MAGL [5]) | inhibition at 1 µM (FAAH [6]) | IC50 (MAGL [1]) |
| --- | --- | --- | --- | --- | --- | --- | --- | --- |
| CC1CCC(C)N1c1cc(C(F)(F)F)ccc1CN1CCN(C(=O)n2ccc(C(=O)O)n2)CC1 (stereo not drawn) [Example 114, 1-(4-(2-(2,5-dimethylpyrrolidin-1-yl)-4-(trifluoromethyl)benzyl)piperazine-1-carbonyl)-1H-pyrazole-3-carboxylic acid] | > 75% | 0 to 25% | 0 to 25% |  | 0 to 25% | > 75% | 0 to 25% |  |
| CN(Cc1ccc(C(F)(F)F)cc1N1C2CCC1COC2)C1(C)CCN(C(=O)n2ccc(C(=O)O)n2)CC1 [Example 207, 1-(4-((2-(3-oxa-8-azabicyclo[3.2.1]octan-8-yl)-4-(trifluoromethyl)benzyl)(methyl)amino)-4-methyl-piperidine-1-carbonyl)-1H-pyrazole-3-carboxylic acid] | > 75% | 0 to 25% | 0 to 25% |  | 0 to 25% | > 75% | 0 to 25% |  |
| O=C(O)c1ccn(C(=O)N2CCN(Cc3cccc(Cl)c3N3C4CCC3COC4)CC2)n1 [Example 212, 1-(4-(2-(3-oxa-8-azabicyclo[3.2.1]octan-8-yl)-3-chlorobenzyl)piper-azine-1-carbonyl)-1H-pyrazole-3-carboxylic acid] | > 75% | 0 to 25% | 0 to 25% |  | 0 to 25% | > 75% | 0 to 25% |  |
| O=C(O)c1ccn(C(=O)N2CCN(Cc3ccc(C(F)(F)F)cc3N3CC[C@@H](F)C3)CC2)n1 [Example 101, (R)-1-(4-(2-(3-fluoropyrrolidin-1-yl)-4-(trifluoromethyl)benzyl)piperazine-1-carbonyl)-1H-pyrazole-3-carboxylic acid] | > 75% | 0 to 25% | 0 to 25% |  | 0 to 25% | > 75% | 0 to 25% |  |
| O=C(O)c1ccn(C(=O)N2CCN(Cc3cccc(Oc4cc(C(F)(F)F)ccn4)c3)CC2)n1 [Example 57, 1-(4-(3-((4-(trifluoromethyl)pyridin-2-yl)oxy)benzyl)piper-azine-1-carbonyl)-1H-pyrazole-3-carboxylic acid] | > 75% | 0 to 25% | 0 to 25% | 100 to 1000 nM | 50 to 75% | > 75% | 50 to 75% |  |
| O=C(O)c1ccn(C(=O)N2CCN(Cc3ccc(C(F)(F)F)cc3N3CC4COCC4C3)CC2)n1 (stereo not drawn) [Example 106, 1-(4-(2-(tetrahydro-1H-furo[3,4-c]pyrrol-5(3H)-yl)-4-(trifluoromethyl)benzyl)piperazine-1-carbonyl)-1H-pyrazole-3-carboxylic acid] | > 75% | 0 to 25% | 0 to 25% |  | 0 to 25% | > 75% | 0 to 25% |  |
